According to patent publication US20010034342A1, “Substituted urea and isothiourea derivatives as no synthase inhibitors” (priority 1993, published 2001):
Structures can show the parent of a compound that is named as a salt. Where two headings read alike, the source gives them in different places.

Experiments:
[1] = target: T1, human placental NOS (Homo sapiens, UniProt P29474); assay: Assay for human placental NOS (citrulline formation); type: biochemical; details: for inhibition at 25 µM: @ 25 μM inhibitor, read-out: Human Placental, percent (inhibition) @ 25 μM
T1 construct: Purification of NOS from human placenta; from tissue; host or cells: fresh human placenta
Method: (§1) NOS was assayed for the formation of citrulline following the procedure of Schmidt et al (PNAS 88 365-369, 1991) with these modifications: 20 mM Hepes, pH 7.4, 10 μg/ml calmodulin, 2.5 mM CaCl2 2.5 mM DTT, 125 μM NADPH 10 μM H4 Biopterin, 0.5 mg/ml BSA, and 1 μM L-[14C] arginine (New England Nuclear). Linearity of NOS-catalyzed rate was confirmed prior to kinetic studies that used single tine point determination of rate.

[2] = target: T2, inducible human NOS (Homo sapiens, UniProt P35228); assay: Assay for inducible human NOS (citrulline formation), enzyme from cytokine-induced DLD-1 cells; type: biochemical; details: for inhibition at 25 µM: @ 25 μM inhibitor, read-out: Human Inducible, percent (inhibition) @ 25 μM
T2 construct: Purification of NOS cytokine-induced human colorectal adenocarcinoma DLD-1 cells; endogenous in cells; host or cells: DLD-1 (ATCC No. CCL 221), induced with IFN-gamma, IL-6, TNF and IL-1beta
Method: as §1
DLD-1 (ATCC No. CCL 221) were grown at 37° C., 5% CO2 in RPMI 1640 medium supplemented with L-glutamin, penicillin, streptomycin, and 10% heat-inactivated fetal bovine serum. Cells were grown to confluency and then the following cocktail of cytokines were added: 100 units/ml interferon-gamma, 200 units/ml interleukin-6, 10 ng/ml tumor necrosis factor, and 0.5 ng/mil interleukin-1β. At 10-24 hr post-induction, cells were harvested by scraping and washed with phosphate-buffered saline. Pelleted cells were stored at −70° C. Purification of the induced NOS was performed at 4° C. Crude extract was prepared by three cycles of freeze/thawing cells in TDGB (20 mM tris pH 7.5, 10% glycerol, 1 mM DTT, 2 μM tetrahydrobiopterin). Extract was applied directly onto a column of 2′,5′ ADP sepharse (Pharmacia). Resin was sequentially washed with TDGB, 0.5 M NaCl in TDGB, TDGB. NOS was eluted with 2 mM NADPH in TDGB. BSA was immediately added to give a final concentration of 1 mg/ml. NOS could be quick frozen and stored at −70° C. without loss in activity for at least 2 months.
Assay for inducible human NOS.
The formation of citrulline was assayed as described above except that 10 μM FAD was included and calmodulin and CaCl2 were excluded from the assay mix.

[3] = target: T3, Human brain NOS (Homo sapiens, UniProt P29475); assay: Human brain NOS enzyme activity assay; type: biochemical; details: for Ki: isolated enzyme from human brain; for inhibition at 25 µM: @ 25 μM inhibitor, read-out: Human Brain, percent (inhibition) @ 25 μM
T3 construct: Purification of NOS from human brain; from tissue; host or cells: frozen human brain
Method: The mixture was centrifuged at 13,000 g for 1 hour and the supernatant was removed (about 2050 ml). […] The precipitate was pelleted at 13,000 g for 30 minutes and the pellet was resuspended in −400 mls of buffer A with 4 μM tetrahydrobiopterin, 1 μm FAD (Sigma), 1 μM FMN (Sigma). The solution was centrifuged at 41,000 g for 60 minutes. The supernatant was removed, frozen by pouring into liquid nitrogen, and stored overnight at −70° C. The mixture was thawed and passed through a 2′,5′ ADP-agarose column (0.4 g swelled in buffer A) at 4 ml/min. The column was washed with 100 ml buffer A, 200 ml buffer A with 500 mM NaCl, 100 ml Buffer A, then 30 ml buffer A with 5 mM NADPH. […] To the enzyme was added tetrahydrobiopterin to 10 μM, FAD and FMN to 1 μM, and tween to 0.1%. This solution was concentrated by centriprep-30 to a volume of approximately 500 μl. Human NOS was prepared completely analogously except the calmodulin-agarose column was not used.

[4] = isolated enzyme from human placenta, read-out: Human Placental Ki/μM
[5] = isolated enzyme from DLD-1 cells, read-out: Human Inducible Ki/μM

T1 sequence (P29474 2-1203): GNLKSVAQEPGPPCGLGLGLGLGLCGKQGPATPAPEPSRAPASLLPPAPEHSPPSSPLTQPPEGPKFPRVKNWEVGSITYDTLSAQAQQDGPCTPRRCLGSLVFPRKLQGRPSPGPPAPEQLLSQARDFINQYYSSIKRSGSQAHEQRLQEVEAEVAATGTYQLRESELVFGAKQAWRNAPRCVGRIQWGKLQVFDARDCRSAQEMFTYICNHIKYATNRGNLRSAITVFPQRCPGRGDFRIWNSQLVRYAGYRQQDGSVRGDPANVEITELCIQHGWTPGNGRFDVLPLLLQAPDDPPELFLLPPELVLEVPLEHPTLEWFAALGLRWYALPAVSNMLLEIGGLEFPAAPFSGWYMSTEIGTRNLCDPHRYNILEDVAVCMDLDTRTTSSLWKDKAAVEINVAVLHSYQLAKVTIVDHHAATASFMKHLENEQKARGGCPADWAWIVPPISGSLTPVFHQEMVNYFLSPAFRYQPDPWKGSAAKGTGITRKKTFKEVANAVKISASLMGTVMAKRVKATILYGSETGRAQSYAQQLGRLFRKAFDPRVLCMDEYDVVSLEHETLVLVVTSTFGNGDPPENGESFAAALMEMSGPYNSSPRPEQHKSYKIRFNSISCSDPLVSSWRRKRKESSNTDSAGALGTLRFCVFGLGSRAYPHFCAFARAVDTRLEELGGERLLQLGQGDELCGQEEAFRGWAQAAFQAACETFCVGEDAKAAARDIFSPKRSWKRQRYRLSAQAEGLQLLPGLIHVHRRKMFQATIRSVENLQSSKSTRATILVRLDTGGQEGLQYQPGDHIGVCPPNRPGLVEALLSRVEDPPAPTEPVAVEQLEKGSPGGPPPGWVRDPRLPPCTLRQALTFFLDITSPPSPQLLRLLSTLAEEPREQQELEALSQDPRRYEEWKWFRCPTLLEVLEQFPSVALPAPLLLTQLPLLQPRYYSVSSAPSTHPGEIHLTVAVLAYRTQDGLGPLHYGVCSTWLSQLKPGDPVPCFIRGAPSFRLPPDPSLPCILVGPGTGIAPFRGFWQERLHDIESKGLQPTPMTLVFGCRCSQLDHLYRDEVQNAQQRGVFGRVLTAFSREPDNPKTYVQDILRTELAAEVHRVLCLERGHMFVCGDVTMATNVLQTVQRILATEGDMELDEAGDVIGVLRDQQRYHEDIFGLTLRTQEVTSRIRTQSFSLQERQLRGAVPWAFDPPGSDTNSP
T3 sequence (P29475 whole entry): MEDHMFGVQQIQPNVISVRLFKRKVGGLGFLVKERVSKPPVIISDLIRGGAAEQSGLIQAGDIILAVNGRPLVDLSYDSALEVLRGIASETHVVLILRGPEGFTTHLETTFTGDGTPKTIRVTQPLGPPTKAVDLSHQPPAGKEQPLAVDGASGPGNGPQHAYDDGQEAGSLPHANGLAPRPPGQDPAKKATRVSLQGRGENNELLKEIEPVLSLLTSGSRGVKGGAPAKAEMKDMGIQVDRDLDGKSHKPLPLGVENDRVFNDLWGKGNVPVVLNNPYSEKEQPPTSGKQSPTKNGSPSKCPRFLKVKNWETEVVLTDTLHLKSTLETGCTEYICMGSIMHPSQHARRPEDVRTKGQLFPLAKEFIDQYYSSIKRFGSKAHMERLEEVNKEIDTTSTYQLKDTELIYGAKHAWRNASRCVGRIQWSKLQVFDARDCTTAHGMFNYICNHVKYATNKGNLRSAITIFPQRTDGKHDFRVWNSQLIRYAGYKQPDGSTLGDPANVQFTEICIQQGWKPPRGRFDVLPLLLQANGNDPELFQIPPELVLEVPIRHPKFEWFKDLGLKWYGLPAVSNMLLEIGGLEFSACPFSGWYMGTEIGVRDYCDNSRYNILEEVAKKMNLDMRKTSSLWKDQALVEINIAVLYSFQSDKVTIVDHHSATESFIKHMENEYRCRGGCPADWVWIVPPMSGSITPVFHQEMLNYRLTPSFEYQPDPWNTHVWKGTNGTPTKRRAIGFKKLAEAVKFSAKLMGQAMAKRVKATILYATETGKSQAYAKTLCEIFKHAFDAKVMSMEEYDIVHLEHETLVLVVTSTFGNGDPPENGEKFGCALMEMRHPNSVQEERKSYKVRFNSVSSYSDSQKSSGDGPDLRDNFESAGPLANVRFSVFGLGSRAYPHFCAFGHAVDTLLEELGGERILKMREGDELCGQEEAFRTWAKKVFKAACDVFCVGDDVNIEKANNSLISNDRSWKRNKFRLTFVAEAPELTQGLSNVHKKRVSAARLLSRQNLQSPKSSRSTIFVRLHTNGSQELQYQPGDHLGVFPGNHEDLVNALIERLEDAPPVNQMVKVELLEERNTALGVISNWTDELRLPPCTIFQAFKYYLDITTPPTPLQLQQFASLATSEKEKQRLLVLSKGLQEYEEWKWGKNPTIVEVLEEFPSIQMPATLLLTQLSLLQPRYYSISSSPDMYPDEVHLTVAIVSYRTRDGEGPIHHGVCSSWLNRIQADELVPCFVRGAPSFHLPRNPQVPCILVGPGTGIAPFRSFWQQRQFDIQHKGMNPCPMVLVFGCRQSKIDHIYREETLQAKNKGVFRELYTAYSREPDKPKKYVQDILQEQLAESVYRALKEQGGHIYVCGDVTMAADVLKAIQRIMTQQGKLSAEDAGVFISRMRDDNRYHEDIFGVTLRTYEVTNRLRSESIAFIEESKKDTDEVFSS
T2 sequence (P35228 whole entry): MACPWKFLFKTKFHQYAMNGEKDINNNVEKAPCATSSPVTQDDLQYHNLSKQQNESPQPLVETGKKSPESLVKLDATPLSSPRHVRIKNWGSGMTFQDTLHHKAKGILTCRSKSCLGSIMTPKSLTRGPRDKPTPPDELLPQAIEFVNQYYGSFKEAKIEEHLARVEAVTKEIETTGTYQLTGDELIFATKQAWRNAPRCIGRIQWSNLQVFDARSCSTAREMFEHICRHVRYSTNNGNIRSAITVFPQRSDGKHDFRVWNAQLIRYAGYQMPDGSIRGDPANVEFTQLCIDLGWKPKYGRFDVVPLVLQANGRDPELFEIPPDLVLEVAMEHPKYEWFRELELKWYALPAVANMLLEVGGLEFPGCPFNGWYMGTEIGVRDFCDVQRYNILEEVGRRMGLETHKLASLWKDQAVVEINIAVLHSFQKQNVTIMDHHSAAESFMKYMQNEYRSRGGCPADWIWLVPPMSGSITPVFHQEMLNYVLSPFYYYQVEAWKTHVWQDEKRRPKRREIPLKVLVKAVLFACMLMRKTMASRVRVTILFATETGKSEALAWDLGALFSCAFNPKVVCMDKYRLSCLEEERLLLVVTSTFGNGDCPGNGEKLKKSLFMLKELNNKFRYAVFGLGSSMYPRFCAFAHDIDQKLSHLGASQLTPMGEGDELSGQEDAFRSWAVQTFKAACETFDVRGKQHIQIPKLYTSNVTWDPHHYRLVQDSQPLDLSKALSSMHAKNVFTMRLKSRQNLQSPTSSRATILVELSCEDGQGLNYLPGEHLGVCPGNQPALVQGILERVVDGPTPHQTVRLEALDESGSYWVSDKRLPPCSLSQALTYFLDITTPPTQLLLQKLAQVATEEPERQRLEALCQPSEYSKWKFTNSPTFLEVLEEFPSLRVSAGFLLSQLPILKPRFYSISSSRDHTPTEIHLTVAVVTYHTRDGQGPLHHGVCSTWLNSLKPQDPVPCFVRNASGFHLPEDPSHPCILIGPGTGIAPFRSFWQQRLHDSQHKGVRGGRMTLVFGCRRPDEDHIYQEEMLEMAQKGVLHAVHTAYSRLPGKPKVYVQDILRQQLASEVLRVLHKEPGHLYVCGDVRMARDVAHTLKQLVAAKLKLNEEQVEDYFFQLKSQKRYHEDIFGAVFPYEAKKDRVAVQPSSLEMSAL

Ki [1, 4]	Ki [2, 5]	Ki [3]	Molecule	further results
3.3 µM	0.69 µM	3 µM	CSC(=N)NCc1cccc(CN)c1 [Example 13, 1-(3-(Aminomethyl)benzyl)-S-methylisothiourea]	–
6.5 µM	10 µM	1.13 ± 0.02 µM	CCSC(=N)Nc1ccccc1C(C)C [Example 2C, S-Ethyl-N-(2-isopropylphenyl)isothiourea]	–
4.1 µM	1.7 µM	0.09 µM	CCOC(=N)NCc1cccc(CN)c1 [Example 12, 1-(3-(Aminomethyl)benzyl)-O-ethylisourea]	–
9.4 µM	–	0.32 ± 0.02 µM	CCSC(=N)Nc1ccc(C(F)(F)F)cc1 [Example 2, S-ethyl-N-[4-(trifluoromethyl)phenyl]isothiourea hydrochloride]	inhibition at 25 µM [2]: 36%
2.7 µM	2.5 µM	0.34 µM	CCSC(=N)Nc1ccc(O)cc1 [Example 1I, S-ethyl-N-(4-hydroxyphenyl)isothiourea]	–
30 µM	40 µM	61 µM	CC(C)SC(=N)NCCC[C@@H](N)C(=O)O [Example 9K]	–
2 µM	4.7 µM	0.25 ± 0.02 µM	CCSC(=N)Nc1ccccc1Br [Example 1F, S-ethyl-N-(2-bromophenyl)isothiourea]	–
1.8 µM	22 µM	1.4 ± 0.01 µM	CCSC(=N)Nc1ccccc1C(F)(F)F [Example 2F, S-Ethyl-N-[2-(trifluoromethyl)phenyl]isothiourea]	–
8.2 µM	17 µM	4.2 µM	CCSC(=N)Nc1ccc(Cl)c(C(F)(F)F)c1 [Example 2K, S-Ethyl-N-(4-chloro-3-(trifluoromethyl)phenyl)isothiourea]	–
14 µM	5.3 µM	5.5 µM	CCSC(=N)NCc1ccc(CN)cc1 [Example 14A, 1-(4-(Aminomethyl)benzyl)-S-ethylisoiourea]	–
1.8 µM	2.9 µM	0.17 µM	CCSC(=N)Nc1ccccc1Cl [Example 2G]	–
–	–	1.9 ± 0.1 µM	CCOC(=N)Nc1ccc(C(F)(F)F)cc1 [Example 3A, O-Ethyl-N-(4-(trifluoromethyl)phenyl)isourea]	Human Placental, percent (inhibition), concentration not given [1]: 35%; Human Inducible, percent (inhibition), concentration not given [2]: 12%
22 µM	45 µM	3.2 µM	CSC(=N)NCc1ccc(CNC(=N)SC)cc1 [Example 7, N,N-((methylthio)iminomethyl)-p-xylylenediamine]	–
1.8 µM	2.4 µM	0.45 µM	CCSC(=N)Nc1cccc(Cl)c1 [Example 2B, S-Ethyl-N-(3-chlorophenyl)isothiourea]	–

The remaining lines, values behind:

Molecule	Ki [1, 4]	Ki [2, 5]	Ki [3]	further results
CCSC(=N)NCc1cccc(CN)c1 [Example 13A, 1-(3-(Aminomethyl)benzyl)S-ethylisothiourea]	2.1 µM	0.15 µM	0.9 µM	–
CSC(=N)NCc1cccc(CNC(=N)SC)c1 [Example 6, N, N′-((methylthio)iminomethyl)-m-xylylenediamine]	17 µM	2.3 µM	0.5 µM	–
CCSC(=N)Nc1ccccc1OC [Example 2H, S-Ethyl-N-(2-methoxyphenyl)isothiourea]	1.6 µM	1.4 µM	0.17 ± 0.02 µM	–
CCSC(=N)Nc1ccncc1 [Example 2M, S-Ethyl-N-(4-pyridyl)isothiourea]	6.9 µM	23 µM	1 ± 0.2 µM	–
CSC(=N)NCCC[C@H](N)C(=O)O [Example 8]	–	–	–	Ki ([1]; from percent inhibition at three or more concentrations at a single time point, assuming competitive inhibition with respect to arginine, read-out: Human Placental Ki/μM (footnote b)): 0.07 µM; Ki ([2]; from steady state inhibited rate / control rate, assuming competitive inhibition with respect to arginine, read-out: Human Inducible Ki/μM (footnote a)): 0.034 µM; Kd ([3]; Kd from association and dissociation rate constants for the slow onset of inhibition, read-out: Human Brain Ki/μM (footnote c: value is a Kd)): 0.001 µM
CSC(=N)NCc1ccc(CN)cc1 [Example 14, 1-(4-(Aminomethyl)benzyl)-S-methylisothiourea]	23.2 µM	22.6 µM	28 µM	–
COC(=N)Nc1ccc(C(F)(F)F)cc1 [Example 3, O-Methyl-N-(4-(trifluoromethyl)phenyl)isourea]	–	–	–	Human Placental, percent (inhibition), concentration not given [1]: 14%; Human Inducible, percent (inhibition), concentration not given [2]: 4%; Human Brain, percent (inhibition), concentration not given ([3]; concentration not given): 24%; melting point: 121 to 123 °C
CSC(=N)NCCCC[C@H](N)C(=O)O [Example 9A, N^6-(imino(methylthio)methyl)L-lysine]	4.1 µM	1.7 µM	0.09 µM	–
CC(C)CSC(=N)NCCC[C@H](N)C(=O)O [Example 9E, N^5-(imino(2-methylpropylthio)methyl)-L-ornithine]	14 µM	5.3 µM	5.5 µM	–
N=C(Nc1ccc(C(F)(F)F)cc1)SCc1ccccc1 [Example 2A, S-Benzyl-N-[4-(trifluoromethyl)phenyl]isothiourea]	–	–	–	Human Placental, percent (inhibition), concentration not given [1]: 0%; Human Inducible, percent (inhibition), concentration not given [2]: 0%; inhibition at 25 µM [3]: 11%; melting point: 71 to 72 °C
CCSC(=N)Nc1ccc(OC)cc1 [Example 1J, S-ethyl-N-(4-methoxyphenyl)isothiourea]	2.7 µM	4.9 µM	0.29 ± 0.04 µM	–
N^6-((methylthio)iminomethyl)-D-lysine [Example 9H]	1.2 µM	5.3 µM	0.4 µM	–
CCSC(=N)Nc1ccc(C(=O)O)cc1 [Example 1D, S-ethyl-N-(4-carboxyphenyl)isothiourea]	–	–	–	inhibition at 25 µM [1]: 14%; Human Inducible, percent (inhibition), concentration not given [2]: 0%; inhibition at 25 µM [3]: 30%
N^6-(ethylthio)iminomethyl-D-lysine [Example 9J]	1.3 µM	7 µM	0.56 µM	–
CCSC(=N)Nc1ccccn1 [Example 1K, S-ethyl-N-(2-pyridyl)isothiourea]	–	–	4.8 µM	inhibition at 25 µM [1]: 48%; inhibition at 25 µM [2]: 48%
